According to patent US12083230B2, “Nano-encapsulation using GRAS materials and applications thereof” (priority 2015, dated 2024):

Columns and labels:
[1] = cited from earlier work; for Log D: pH 7.4
[2] = Nile Red encapsulation efficiency by UV-Vis of flow through after centrifugal filtration; assay type: physicochemical; conditions: in Zn/CAS-VitE-Ac NPs, all stable formulations (0.2%-5 wt.%)
Text: The utility of an encapsulation method depends on its encapsulation capacity and efficiency for various compounds. […] Nile Red was encapsulated at 0.2%-5 wt. %. At 0.1% wt. […] Encapsulation efficiency of Nile Red in Zn/CAS-VitE-Ac NPs was >98% for all stable formulations as determined by UV-Vis measurement of the flow through after centrifugal filtration (FIG. 7). With increasing Nile Red concentration in the core, the mean nanoparticle diameter increases (FIG. 6b). The florescence intensity is expected to increase with higher dye loading per particle. This can be seen in FIGS. 6(c) and 6(d) for two different wavelengths (500 nm excitation, 690 nm emission) and core loadings of 0.2-1% wt.

[3] = Nanoparticle solution stability (milliQ H2O, PBS pH7.4, LB50, 2% bile salts, pH2.0) by DLS; assay type: physicochemical; conditions: 10% wt. Nile Red loading
Protocol: Using a Zetasizer® Nano-ZS (Malvern instruments, Malvern, UK), dynamic light scattering (DLS) size measurements were performed on samples directly after FNP. Samples were diluted with ultra-pure water to avoid multiple scattering and analyzed at 25° C. using a detection angle of 173°. The reported size is the intensity-weighted average diameter as reported by the Malvern deconvolution software in Normal Mode analysis.
Initially, nanoparticle formulations were screened for stability at physiologic conditions (PBS) and conditions relevant to the in vitro model of V. cholera.
Various zein-to-casein ratios were produced to further investigate formulation stability in physiological environments relevant to oral delivery. Zein to casein ratios 4:1, 2:1, and 1:1 FIG. 17 in PBS, pH2.0, LB50 and 2% bile salts were investigated.

V. cholera cultures = assay: Growth of V. cholera cultures at 37° C.; assay type: cell-based; conditions: during the time tested
Protocol: FIG. 10(b) illustrates growth of V. cholera cultures at 37° C. in response to addition of CAI-1-loaded Zein/CAS/VitE-Ac nanoparticles according to some embodiments described herein.
Changes in size and PDI could only be observed for the three-fold protein per amount of drug formulation (FIG. 9a). […] All parts of the formulation were necessary for the formation of nanoparticles with defined size. […] FNP of CAI-1 alone yielded a polydisperse emulsion, which then agglomerated and settled out over time.

V. cholerae WN1102 = assay: Bioluminescence response of V. cholerae WN1102 (in vitro bioactivity assay); assay type: cell-based; conditions: suggested by bioactivity of the flow through
Text: FIG. 10(a) illustrates bioluminescence response of V. cholerae WN1102 supplemented with varying amounts of CAI-1-loaded Zein/CAS/VitE-Ac composite nanoparticles in PBS according to some embodiments described herein.
The bioactivity of blank Zein/CAS/VitEA particles was not detectable (FIG. 10b). […] The flow-through after centrifugal filtration can be regarded as a correlate for encapsulation efficiency of CAI-1. Bioactivity of the flow through was observed only at very high concentrations, approximately 1,000-10,000-fold higher than CAI-1 NPs.

Row | SMILES | Log D [1] | log P [1] | also measured
1 | CCN(CC)c1ccc2nc3c4ccccc4c(=O)cc-3oc2c1 [Nile Red] | 4.46 | – | Encapsulation efficiency of Nile Red [2]: > 98%; NP behaviour after FNP at high dye loading [3]: immediate aggregation of NPs
2 | c1cc2ccc3cccc4ccc(c1)c2c34 [Pyrene] | 4.92 | 5.17 | –
3 | CCCCCCCCCC(=O)[C@@H](O)CC [CAI-1] | 4.30 | – | Effect on the growth of cells (V. cholera cultures): no apparent effect; Encapsulation efficiency of CAI-1 during FNP (V. cholerae WN1102): > 98%
4 | Nc1ccc(O)c(C(=O)O)c1 [Mesalazine] | -1.98 | 0.46 | –
5 | CN(C)c1ccc(/N=N/c2ccccc2C(=O)O)cc1 [Methyl Red] | 1.46 | – | –
6 | NC(=O)CC[C@@H]1NC(=O)[C@H](Cc2ccccc2)NC(=O)[C@H](Cc2ccc(O)cc2)NC(=O)CCSSC[C@@H](C(=O)N2CCC[C@H]2C(=O)N[C@H](CCCN=C(N)N)C(=O)NCC(N)=O)NC(=O)[C@H](CC(N)=O)NC1=O [Desmopressin] | -7.34 | – | –
